The structures appear in SMILES notation. pIC50: −log10 of the molar value. “Also recorded” adds a separate entry of the source. Where two headings read alike, the source gives them in different places.

One test has as its system Hh signaling pathway. Briefly: NIH3T3-GRE-Luc luciferase reporter assay (primary assay). Type of test: cell-based. The following applies: for IC50: 48 h, 10 nM SAG as agonist, 48 hours, read-out: Effect IC50 (nM)(GRE reporter assay). The text has this: NIH3T3 cells (CRL-1658, ATCC) were maintained in DMEM (Gibico) supplemented with 10% FBS (Hyclone). GRE-Luc plasmid was generated by inserting 8×Gli-1 responsive element (GRE) into the multiple cloning site of pGL4.26 vector (Promega). NIH3T3-GRE-Luc reporter cell line was established by hygromycin (Invitrogen) selection after transfected with GRE-Luc luciferase reporter plasmid. Single clones were validated by the induction of luciferase by recombinant sonic hedgehog (sHh) protein or small molecule agonist SAG (ABIN629346). Selected clone was used to monitor the Hh signaling.
The NIH3T3-GRE-Luc cells were maintained in complete culture medium (DMEM with 4 mM L-Gln, 1.5 g/L sodium bicarbonate and 4.5 g/L glucose supplemented with 100 μg/mL hygromycin and 10% FBS). When confluent, the cells were trypsinized and re-suspended in assay medium (0.5% serum-containing DMEM). After 100 µL/well of cells suspension was added to the 96-well-plate (Final cell concentration is 15,000 cells/well), cells were cultured for additional 48 hours before adding the compounds.
Compounds were serially diluted in DMSO and further diluted with assay medium. In an embodiment, 10 nM SAG was added in assay medium as the agonist of Hh signaling. After the compounds and agonist were prepared, the medium was removed carefully. 100 μL of assay medium containing compound and agonist was added to the cell with care. Cell plates were incubated at 37° C. for additional 48 hours.
Following the 48 hours incubation, 40 μL/well of luciferase media (Brigh-Glo, Promega) was added to the cells. The plate was incubated at room temperature for 5 minutes under gentle shaking. Luminescence signal was measured with plate reader (PHERAstar FS, BMG). The potency of compounds was calculated based on the inhibition of luminescence signaling.
NIH3T3 cells (CRL-1658, ATCC) were maintained in DMEM (11965, Gibico) supplemented with 10% FBS (Hyclone). GRE-Luc plasmid was generated by cloning 8×Gli-1 responsive element (GRE) into the MCS of pGL4.26 (Promega). NIH3T3-GRE-Luc reporter cell lines were established by hygromycin (Invitrogen) selection after transfection with GRE-Luc luciferase reporter plasmid. Single clones were validated for the assay quality with N-terminal fragment of recombinant sonic hedgehog protein or small molecule agonist SAG (ABIN629346). Selected clone were used to monitor the Hh signaling.
The NIH3T3-GRE-Luc cells were maintained in complete culture medium (DMEM with 4 mM L-Gln, 1.5 g/L sodium bicarbonate and 4.5 g/L glucose supplemented with 100 ug/ml hygromycin and 10% FBS). When confluent, the cells were trypsinized and resuspended in assay medium (0.5% serum-containing DMEM). After 100 ul/well of cells suspension was added to the 96-well-plate (Final cell concentration is 15,000 cells/well), cells were cultured for additional 48 hours before adding the compounds.
Compounds were serially diluted in DMSO and further diluted with assay medium. In an embodiment, 10 nM SAG was added in assay medium as the agonist of Hh signaling. After the compounds and agonist were prepared, carefully remove medium (Aspirate the medium with pipette instead of vacuum, or else the NIH3T3 cells monolayer will be detached). 100 ul of assay medium containing compound or agonist was added to the cell with care. Cell plates were incubated at 37 degree for additional 48 hours.
Following the 48 hours incubation, 40 ul/well of luciferase media (Brigh-Glo, Promega) was added to the cells. The plate was incubated at room temperature for 5 min under gentle shaking. Luminescence signal was measured with plate reader (PHERAstar FS, BMG). The potency of compounds was calculated basing on the inhibition of luminescence signaling.
On the technique in general: In a reporter assay the amount or activity of a reporter protein is the signal.

The subject of test [1] is primary medulloblastoma of Patched (PTCH)+/−, p53−/− mice. As to the kind of experiment: Mouse tumor model (tumor inhibition). Type of test: in vivo, SCID mice. Conditions: 100 mg/kg/day, 14 days. The method, then:
Tumor cells from the primary medulloblastoma of Patched (PTCH)+/−, p53−/− mice were injected subcutaneously into the right side of SCID mice. About 7 days after implantation, treatments were started when the tumor volume grew to an average of 200 mm^3. Animals were randomly divided into blank group, compound B administration group and compound B1 administration group. The doses of compound B1 and racemic compound B were 100 mg/kg/day. Tumor volume […] and body weight (g) were recorded every other day. After 14 days of administration, mice were sacrificed and the tumors were removed.
Primary medulloblastoma (5×10^6) from Patched(PTCH)+/−, p53−/− mice can be […] injected into the right sides of SCID mice. Seven days after the injection, treatment with drugs can start when the average size of tumors reaches 200 mm^3. Subjects can be randomly assigned to the control group, the compound B-treatment group and the compound B1-treatment group. Compounds B and B1 can be administered at dosages of about 100 mg/kg/day. The tumor volume and the body weights of the subjects can be measured and recorded every other day. On the 14th day after the drug administration, the subjects can be sacrificed and their tumors can be removed.

Setting [2] is: IC50 of vismodegib over that of the tested compound in the same assay.
Where [3] appears, read: IC50 value of Vismodegib over that of the tested compound in the same assay.
The mark [4] stands for this setting: primary assay, Table 5, read-out: SMO IC50.

In general, IC50 refers to the concentration at which inhibition is half-maximal. By pIC50 is commonly meant −log10 of the IC50, conventionally taken in molar units. With `Cc1cnc(-c2cc(N3CCc4nc(N5CCC(O)CC5)ncc4C3C)ncc2Cl)c(C)c1` (racemic) [B], the IC50 in the test on Hh signaling pathway worked out at 2.7 nM. Moreover, the Ratio in the test with Hh signaling pathway (setting [2]) and in the test on Hh signaling pathway (setting [3]) was 5.0 in each case. Besides, the negative logarithm of the IC50 (pIC50) with Hh signaling pathway (setting [4]) and in the test with Hh signaling pathway (read-out: IC50 (Hh pathway)) was 8.57 in each case. In addition, the “effect on tumor volume (in words)” value in test [1] is reported as “stop the tumor from growing; also recorded: only stopped the growth of tumor; also recorded: may stop the tumors from growing”; in test [1] (listed as racemic compound), “only stop the tumor growth”.
With `Cc1cnc(-c2cc(N3CCc4nc(N5CCC(O)CC5)ncc4[C@H]3C)ncc2Cl)c(C)c1` [Compound B1, (R)-1-(6-(5′-chloro-3,5-dimethyl-[2,4′-bipyridin]-2′-yl)-5-methyl-5,6,7,8-tetrahydropyrido[4,3-d]pyrimidin-2-yl)piperidin-4-ol], the “Hh pathway inhibitory activity compared to compound B2 of S configuration” value in the test with Hh signaling pathway is given as “more than 20 fold”. Also, the “increase of inhibitory activity against Hedgehog pathway compared with A-55” value with Hh signaling pathway is on record as “about 12 folds”. For the same compound, in the test with Hh signaling pathway, the concentration for half-maximal inhibition (IC50) came out at 0.8 nM. In addition, the Ratio in the test on Hh signaling pathway (setting [2]) and with Hh signaling pathway (setting [3]) was 22.4 in each case. The “increase of Hh pathway inhibitory activity compared to racemic compound B” value in the test on Hh signaling pathway (chiral compound vs racemic compound) is listed as “about 3 fold”. The negative-log IC50 (pIC50) with Hh signaling pathway (setting [4]) and with Hh signaling pathway (read-out: IC50 (Hh pathway)) was 9.10 each time. Also, the “effect on tumor volume (in words)” value in test [1] was “reduce the tumor volume to almost disappear; also recorded: may decrease the tumor volume”; in test [1] (listed as chiral compound), “shrink the tumor volume to almost undetectable”.

For the origin of these results see US10919889B2, “Chiral heterocyclic compound with hedgehog pathway antagonist activity, method and use thereof” (SUZHOU KINTOR PHARMACEUTICALS, INC., priority 2016, dated 2021).
